Tests used:
[1] = system: human embryonic stem cell derived neural stem cells (NSCs); assay: Neural stem cell proliferation assay (neurogenesis assay, ATP levels by CellTiterGlo); format: cell-based; conditions: 96 h, compound concentration at which 150% activity of control (100%) is reached, ATP levels after 4 days incubation, dose response 8 μM to 8 nM
Protocol: Neural Stem Cell Proliferation Assay
Neurogenic properties of small molecules are determined based on the proliferation of human embryonic stem cell derived neural stem cells (NSCs) which were derived via a dual smad inhibition as previously described (Chambers, S. M., et al., Highly efficient neural conversion of human ES and iPS cells by dual inhibition of SMAD signaling, Nature biotechnology, 2009. 27(3): p. 275-80.)
Compounds respond is measured by the increase in cells based on ATP levels (Promega:CellTiterGlo®) after an incubation period of 4 days.
NSCs are thawed and expanded over 3 passages. On the 14th day, NSCs are seeded in Polyornithin/Laminin coated 384 well plates at a cell density of 21′000 cells/cm^2 in a media volume of 38 μl.
4 hours after cell seeding, compound solutions are added at a volume of 2 μl. Stock solutions of the compounds (water, 5% DMSO) are diluted to obtain a dose response (11 points, dilution factor is 2), ranging from 8 μM to 8 nM. Controls are run to consistently determine the neurogenic properties of the cells: • Negative (neutral) control is cell culture Media (final DMSO concentration: 0.25%). Positive controls are: • 1. cell culture Media+100 ng/ml FGF2 (final DMSO concentration: 0.1%) • 2. cell culture Media+20 ng/ml EGF (final DMSO concentration: 0.1%) • 3. cell culture Media+100 ng/ml Wnt3a (final DMSO concentration: 0.1%)
After 4 days incubation at 37° C., 5% CO2, the amount of ATP per well is quantified. The ATP concentration is proportional to the cell number. ATP is quantified by using the Promega CellTiterGlo® kit. The CellTiterGlo® reagents contain a cell lysis buffer, a thermo stable luciferase (UltraGlo™ recombinant luciferase), magnesium and luciferin. Luciferin reacts with ATP producing oxyluciferin, AMP and light. The luminescence signal is proportional to the ATP content.
The value of negative (neutral) control is determined for each assay plate by taking the average of 16 negative control wells. The neurogenic compound response is calculated for each compound as (compound/Negative Control)* 100.
The values of EC150 from the dose response curve are determined for each test compound. The EC150 is the compound concentration at which 150% activity of control (100%) is reached.

Row | Structure (SMILES) | EC (150% of control) [1] [µM] | melting point [°C]
1 | Fc1ccc(-c2onc3ccc(-c4ccnn4-c4ccccc4F)cc23)cc1 [Example 1, 3-(4-Fluoro-phenyl)-5-[2-(2-fluoro-phenyl)-2H-pyrazol-3-yl]-benzo[c]isoxazole] | 0.12 | 171
2 | Fc1cccc(-c2onc3ccc(-c4ccnn4-c4ccccc4F)cc23)c1 [Example 2, 3-(3-Fluoro-phenyl)-5-[2-(2-fluoro-phenyl)-2H-pyrazol-3-yl]-benzo[c]isoxazole] | 0.29 | 186
3 | Cc1ccc(-c2onc3ccc(-c4ccnn4-c4ccccc4F)cc23)cc1 [Example 3, 5-[2-(2-Fluoro-phenyl)-2H-pyrazol-3-yl]-3-p-tolyl-benzo[c]isoxazole] | 0.12 | 173
4 | Fc1ccccc1-n1nccc1-c1ccc2noc(-c3ccc(C(F)(F)F)cc3)c2c1 [Example 4, 5-[2-(2-Fluoro-phenyl)-2H-pyrazol-3-yl]-3-(4-trifluoromethyl-phenyl)-benzo[c]isoxazole] | 0.92 | 156
5 | Fc1ccccc1-n1nccc1-c1ccc2noc(-c3ccc(Cl)cc3)c2c1 [Example 5, 3-(4-Chloro-phenyl)-5-[2-(2-fluoro-phenyl)-2H-pyrazol-3-yl]-benzo[c]isoxazole] | 0.033 | 191
6 | COc1ccc(-c2onc3ccc(-c4ccnn4-c4ccccc4F)cc23)cc1 [Example 6, 5-[2-(2-Fluoro-phenyl)-2H-pyrazol-3-yl]-3-(4-methoxy-phenyl)-benzo[c]isoxazole] | 0.073 | 134
7 | Fc1ccccc1-n1nccc1-c1ccc2noc(-c3ccc(Br)cc3)c2c1 [Example 7, 3-(4-Bromo-phenyl)-5-[2-(2-fluoro-phenyl)-2H-pyrazol-3-yl]benzo[c]isoxazole] | 0.054 | 202
8 | Fc1ccc(-c2onc3ccc(-c4ccnn4-c4ccc(F)cc4)cc23)cc1 [Example 8, 3-(4-Fluoro-phenyl)-5-[2-(4-fluoro-phenyl)-2H-pyrazol-3-yl]-benzo[c]isoxazole] | 0.25 | 159
9 | Fc1ccc(-c2onc3ccc(-c4ccnn4-c4cccc(F)c4)cc23)cc1 [Example 9, 3-(4-Fluoro-phenyl)-5-[2-(3-fluoro-phenyl)-2H-pyrazol-3-yl]-benzo[c]isoxazole] | 2.8 | 175
10 | Fc1ccc(-n2nccc2-c2ccc3noc(-c4cccc(F)c4)c3c2)cc1 [Example 10, 3-(3-Fluoro-phenyl)-5-[2-(4-fluoro-phenyl)-2H-pyrazol-3-yl]-benzo[c]isoxazole] | 0.56 | 176
11 | Cc1ccc(-c2onc3ccc(-c4ccnn4-c4ccc(F)cc4)cc23)cc1 [Example 11, 5-[2-(4-Fluoro-phenyl)-2H-pyrazol-3-yl]-3-p-tolyl-benzo[c]isoxazole] | 0.23 | 158
12 | Fc1ccc(-n2nccc2-c2ccc3noc(-c4ccc(Cl)cc4)c3c2)cc1 [Example 12, 3-(4-Chloro-phenyl)-5-[2-(4-fluoro-phenyl)-2H-pyrazol-3-yl]-benzo[c]isoxazole] | 0.26 | 188
13 | COc1ccc(-c2onc3ccc(-c4ccnn4-c4ccc(F)cc4)cc23)cc1 [Example 13, 5-[2-(4-Fluoro-phenyl)-2H-pyrazol-3-yl]-3-(4-methoxy-phenyl)-benzo[c]isoxazole] | 0.39 | 153
14 | Cc1ccc(-n2nccc2-c2ccc3noc(-c4ccc(F)cc4)c3c2)cc1 [Example 14, 3-(4-Fluoro-phenyl)-5-(2-p-tolyl-2H-pyrazol-3-yl)-benzo[c]isoxazole] | 0.091 | 173
15 | Cc1ccc(-n2nccc2-c2ccc3noc(-c4cccc(F)c4)c3c2)cc1 [Example 15, 3-(3-Fluoro-phenyl)-5-(2-p-tolyl-2H-pyrazol-3-yl)-benzo[c]isoxazole] | 0.14 | 207

— US9440962B2, “Benzisoxazoles” (Hoffmann-La Roche Inc., priority 2012, dated 2016)
